Reference: US6395717B1, “Therapeutic drug for endotoxin blood symptom and multi-organ failure induced thereby” (priority 1995, dated 2002)

How the values were obtained:
[1] = tested on: renal failure induced by endotoxin; assay: Effect upon renal failure induced by endotoxin (kidney clearance of inulin and paraaminohippuric acid); type: in vivo, Whister-strain rats; conditions: 10 mg/Kg intravenous
Description: Into each of ten Whister-strain rats (8 to 9 week age) having undergone cannulation at the carotid canal and the bladder was intraveneously drip-infused a 4% manitol solution containing inulin (5 mg/ml) and paraaminohippuric acid (2.5 mg/ml) at a rate of 0.1144 ml/min. Thirty minutes thereafter, a physiological saline solution of sialic acid ([…]) was administered, at a rate of 0.2 ml/100 g (dosage: 10 mg/Kg), to each of the rats administered with sialic acid, whereas the same amount of physiological saline was rapidly interveneously injected to the control rats. Another thirty minutes thereafter, a physiological saline solution of endotoxin was interaveneously injected to the rats (dosage: 0.25 mg/Kg). Then, blood and urine were sampled over 90 minutes, and the concentrations of inulin and paraaminohippuric acid were measured. A kidney clearance was calculated according to the following formula. Urine was collected at an interval of 15 minutes after the administration of sialic acid or physiological saline (in FIG. 2, −15 to 0 minutes, 0 to 15 minutes, 15 to 30 minutes, 30 to 45 minutes and 45 to 60 minutes), and blood was sampled at a middle point of a time period during urine-collecting. The clearance values are shown at such middle points for the respective fractions.
Kidney clearance=Amount of the drug recovered in urine collected in the collecting time period÷Concentration of the drug in plasma at the middle point
The concentration of inulin was measured by the Dishe & Borefreund's method (Z. Dishe and E. Borefreund, J. Biol. Chem., 192, 583-587 (1951)), and the concentration of paraaminohippuric acid was measured by the Marshall's method (E. K. Marshall, J. Biol. Chem., 122, 263-273 (1937)).
Results of the ratio in the filtering speed through glomerulus are shown in FIG. 2, and results of the ratio in renal plasma flow are in FIG. 3. In both the figures, the ordinate means the ratio in the filtering speed through glomerulus or the ratio in the renal plasma flow for 30 minutes between the intraveneous dip infusion of inulin and paraaminohippuric acid and the intraveneous injection of sialic acid or physiological saline.

[2] = tested on: endotoxin-shock; assay: Effect of sialic acid in reduction of endotoxin-shock (survival 24 hours after endotoxin); type: in vivo, SMA-strain male mice; conditions: living mice 24 hours later
Description: Tests were conducted with respect to endotoxin-sensitive, SMA-strain male mice (20 to 30 g) used: (1) sixteen control mice, (2) eight mice each administrated with sialic acid and (3) six mice each administrated with a polymer of sialic acid. (1) With respect to the control mice, 0.1 ml/10 g of physiological saline was peritoneally administrated 30 minutes before the administration of an endotoxin. (2) With respect to the mice administrated with sialic acid, a solution in which 100 mg of sialic acid was dissolved in 10 ml of physiological saline or a ten-times diluted solution thereof was peritoneally administrated to the mouse at a rate of 0.1 ml/10 g of the mouse (Dosage: 100 mg/Kg, 10 mg/Kg). (3) With respect to the mice administrated with the sialic acid polymer, a solution in which 100 mg of a dimer or a trimmer of sialic acid was dissolved in 10 ml of physiological saline or a ten-times was peritoneally administrated to the mouse at a rate of 0.1 ml/10 g (Dosage: 100 mg/Kg). Thirty minutes after the administration, a physiological saline solution of endotoxin (10 mg/ml) was peritoneally administrated to the mouse at a rate of […] (administrated amount: 100 mg/Kg). Then, the number of living mice 24 hours later was checked. […]

[3] = endotoxin 0.25 mg/Kg iv 30 minutes later, 30 minutes after endotoxin administration

Structure (SMILES): CC(=O)N[C@H]1[C@H]([C@H](O)[C@H](O)CO)OC(O)(C(=O)O)C[C@@H]1O (stereo partly drawn) [sialic acid, N-acetylneuraminic acid]
- influence on the ratio in the filtering speed through glomerulus and the ratio in the renal plasma flow, sialic acid alone ([1]; before endotoxin administration): no influence was observed
- decrease of the ratio in the filtering speed through glomerulus [1, 3]: 30%
- decrease of the ratio in the renal plasma flow [1, 3]: 20%
- reduction in both the ratio in the filtering speed through glomerulus and the ratio in the renal plasma flow due to endotoxin ([1]; risk degree of 5% versus control rats): significantly prevented
- survival rate ([2]; 10 mg/Kg peritoneally 30 minutes before endotoxin 100 mg/Kg peritoneally, n=8): 50%
- survival rate ([2]; 100 mg/Kg peritoneally 30 minutes before endotoxin 100 mg/Kg peritoneally): 87.5%
